Laboratory results published in patent publication US11518763B2 (SCOHIA PHARMA, INC., priority 2018, dated 2022).
Read-outs that look alike come from different tables or passages of the source.

Biological target: T1, binding between NRF2 and KEAP1 (biotinylated human KEAP1 protein (Kelch domain), TAMRA-labeled NRF2 peptide) (Homo sapiens, UniProt Q14145)
T1 construct: biotinylated human KEAP1 protein (Kelch domain); biotin (biotinylated)
Experiment: Measurement of activity of inhibiting NRF2 binding (NRF2-KEAP1 TR-FRET)
Conditions: for inhibition at 0.1 µM: read-out: NRF2 binding inhibitory activity (at 100 nM)
Protocol: Test Example 1: Measurement of Activity of Inhibiting NRF2 Binding
The inhibitory activity of test compounds against the binding between NRF2 and KEAP1 was measured by Time Resolved Fluorescence Resonance Energy Transfer (TR-FRET) method. Into a 384 well plate, 2 μL of a compound, 2 μL of 2 nM solution of biotinylated human KEAP1 protein (Kelch domain), 2 μL of 14 nM solution of TAMRA-labeled NRF2 peptide (TAMRA-Abu(4)-VWYTDIRMRDWM-OH), and 2 μL of 2 nM solution of Tb-labeled streptavidin, all solutions diluted with assay buffer (25 mM HEPES, pH7.5, 150 mM NaCl, 0.01% Tween-20), were added. For some wells, the KEAP1 protein was not added to define control wells. The plate was incubated at room temperature for 60 minutes, and time-resolved fluorescence was measured with a plate reader Envision (manufactured by PerkinElmer). The inhibitory activity for each compound at a compound concentration of 100 nM were calculated as a relative activity value by setting the fluorescence intensity of control wells to which the KEAP1 protein was not added as 100% inhibition, and the fluorescence intensity of wells to which no compound was added as 0%.
The measurement results according to the method described above (inhibition rate of signal value relative to control at 100 nM of test compound) are shown in Table 3.

[1] = inhibition rate relative to control at 100 nM test compound, TR-FRET, 60 min at room temperature
[2] = inhibition rate relative to control at 100 nM test compound, TR-FRET, 60 min at room temperature, 0.1 µM

T1 sequence (Q14145 321-609 limits assumed): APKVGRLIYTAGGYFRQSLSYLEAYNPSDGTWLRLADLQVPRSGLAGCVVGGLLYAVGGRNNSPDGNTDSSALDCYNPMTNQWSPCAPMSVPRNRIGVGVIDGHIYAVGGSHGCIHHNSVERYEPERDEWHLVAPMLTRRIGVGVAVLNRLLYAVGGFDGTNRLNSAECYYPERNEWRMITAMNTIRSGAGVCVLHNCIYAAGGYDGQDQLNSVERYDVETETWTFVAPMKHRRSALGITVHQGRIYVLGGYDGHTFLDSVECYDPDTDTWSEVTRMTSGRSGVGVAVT

SMILES	inhibition at 0.1 µM [1] [%]	also measured
Cc1c2ccc3c1nnn3CCCCCCc1ccc(cc1)C(=O)N1CCc3ccc(cc3C1)C2CC(=O)O (racemic) [Example 15, [33-Methyl-21-oxo-8,9,10,22-tetraazahexacyclo[20.5.3.2^17,20.1^3,7.0^6,10.0^25,29]tritriaconta-1(27),3(33),4,6,8,17,19,25,28,31-decaen-2-yl]acetic acid]	100	
Cc1c2ccc3c1nnn3CCCOCc1ccc(cc1)C(=O)N1CCc3ccc(cc3C1)C2CC(=O)O (stereo not drawn) [Example 26, [32-Methyl-20-oxo-14-oxa-8,9,10,21-tetraazahexacyclo[19.5.3.2^16,19.1^3,7.0^6,10.0^24,28]dotriaconta-1(26),3(32),4,6,8,16,18,24,27,30-decaen-2-yl]acetic acid]		NRF2 binding inhibitory activity (at 100 nM) [2]: 99%
Cc1c2ccc3c1nnn3CCCOCc1ccc(c(C(F)(F)F)c1)C(=O)N1CCc3ccc(cc3C1)C2CC(=O)O (racemic) [Example 23, [32-Methyl-20-oxo-18-(trifluoromethyl)-14-oxa-8,9,10,21-tetraazahexacyclo[19.5.3.2^16-19.1^3,7.0^6,10.0^24,28]dotriaconta-1(26),3(32),4,6,8,16,18,24,27,30-decaen-2-yl]acetic acid]	100	
Cc1c2ccc3c1nnn3CCCOCc1ccc(cc1)C(=O)N1CCc3ccc(cc3C1)C2CC(=O)O (racemic) [Example 16, [32-Methyl-20-oxo-14-oxa-8,9,10,21-tetraazahexacyclo[19.5.3.2^16,19.1^3,7.0^6,10.0^24,28]dotriaconta-1(26),3(32),4,6,8,16,18,24,27,30-decaen-2-yl]acetic acid]	100	
Cc1c2ccc3c1nnn3CCCCOc1cc(Cl)c(c(Cl)c1)C(=O)N1CCc3ccc(cc3C1)C2C(C)(C)C(=O)O (stereo not drawn) [Example 66, 2-[18,30-dichloro-32-methyl-20-oxo-15-oxa-8,9,10,21-tetrazahexacyclo[19.5.3.2^16,19.1^3,7.0^6,10.0^24,28]dotriaconta-1(27),3(32),4,6,8,16(31),17,19(30),24(28),25-decaen-2-yl]-2-methylpropanoic acid]		NRF2 binding inhibitory activity (at 100 nM) [2]: 94%
Cc1c2ccc3c1nnn3CCCOCc1ccc(c(C3CC3)c1)C(=O)N1CCc3ccc(cc3C1)C2CC(=O)O (racemic) [Example 19, [18-Cyclopropyl-32-methyl-20-oxo-14-oxa-8,9,10,21-tetraazahexacyclo[19.5.3.2^16,19.1^3,8.0^6,10.0^24,28]dotriaconta-1(26),3(32),4,6,8,16,18,24,27,30-decaen-2-yl]acetic acid]	100	
Cc1c2ccc3c1nnn3CCCOCc1ccc(cc1)C(=O)N1CCc3ccc(cc3C1)C2C(C)(C)C(=O)O (stereo not drawn) [Example 56, 2-methyl-2-[32-methyl-20-oxo-14-oxa-8,9,10,21-tetrazahexacyclo[19.5.3.2^16,19.1^3,7.0^6,10.0^24,28]dotriaconta-1(27),3(32),4,6,8,16,18,24(28),25,30-decaen-2-yl]propanoic acid]		NRF2 binding inhibitory activity (at 100 nM) [2]: 99%
Cc1c2ccc3c1nnn3CCCOCc1cc(Cl)c(c(Cl)c1)C(=O)N1CCc3ccc(cc3C1)C2C(C)(C)C(=O)O (stereo not drawn) [Example 61, 2-[18,30-dichloro-32-methyl-20-oxo-14-oxa-8,9,10,21-tetrazahexacyclo[19.5.3.2^16,19.1^3,7.0^6,10.0^24,28]dotriaconta-1(27),3(32),4,6,8,16,18,24(28),25,30-decaen-2-yl]-2-methylpropanoic acid]		NRF2 binding inhibitory activity (at 100 nM) [2]: 99%
Cc1c2ccc3c1nnn3CCCCOc1ccc(cc1)C(=O)N1CCc3ccc(cc3C1)C2CC(=O)O (racemic) [Example 30, [32-Methyl-20-oxo-15-oxa-8,9,10,21-tetraazahexacyclo[19.5.3.2^16,19.1^3,7.0^6,10.0^24,28]dotriaconta-1(26),3(32),4,6,8,16,18,24,27,30-decaen-2-yl]acetic acid]	100	
Cc1c2ccc3c1nnn3CCCOCc1ccc(cc1)C(=O)N1CCc3ccc(cc3C1)C2CC(=O)O (stereo not drawn) [Example 41, Sodium [32-methyl-20-oxo-14-oxa-8,9,10,21-tetraazahexacyclo[19.5.3.2^16,19.1^3.7.0^6,10.0^24,28]dotriaconta-1(26),3(32),4,6,8,16,18,24,27,30-decaen-2-yl]acetate]		inhibition at 0.1 µM: 100%
Cc1cc2cc(C)c1C(=O)N1CCc3ccc(cc3C1)C(C(C)(C)C(=O)O)c1ccc3c(nnn3CCCOC2)c1C (stereo not drawn) [Example 59, 2-methyl-2-[18,30,32-trimethyl-20-oxo-14-oxa-8,9,10,21-tetrazahexacyclo[19.5.3.2^16,19.1^3,7.0^6,10.0^24,28]dotriaconta-1(27),3(32),4,6,8,16(31),17,19(30),24(28),25-decaen-2-yl]propanoic acid]		NRF2 binding inhibitory activity (at 100 nM) [1]: 100%
Cc1c2ccc3c1nnn3CC/C=C\CCc1ccc(cc1)C(=O)N1CCc3ccc(cc3C1)C2CC(=O)O (racemic) [Example 14, [(13Z)-33-Methyl-21-oxo-8,9,10,22-tetraazahexacyclo[20.5.3.2^17,20.1^3,7.0^6,10.0^25,29]tritriaconta-1(27),3(33),4,6,8,13,17,19,25,28,31-undecaen-2-yl]acetic acid]	79	

More lines, main results first:

inhibition at 0.1 µM [1] [%]	SMILES	also measured
97	Cc1c2ccc3c1nnn3CCCCCc1ccc(cc1)C(=O)N1CCc3ccc(cc3C1)C2CC(=O)Nc1cccnc1 (stereo not drawn) [Example 39]	
100	Cc1c2ccc3c1nnn3CCCOCc1ccc(c(OC(F)(F)F)c1)C(=O)N1CCc3ccc(cc3C1)C2CC(=O)O (racemic) [Example 20, [32-Methyl-20-oxo-18-(trifluoromethoxy)-14-oxa-8,9,10,21-tetraazahexacyclo[19.5.3.2^16,19.1^3,7.0^6,10.0^24,28]dotriaconta-1(26),3(32),4,6,8,16,18,24,27,30-decaen-2-yl] acetic acid]	
100	O=C(O)CC1c2ccc3c(c2)CN(CC3)C(=O)c2ccc(cc2)CCCCCn2nnc3cc1ccc32 (racemic) [Example 2, [20-oxo-8,9,10,21-tetraazahexacyclo[19.5.3.2^16,19.1^3,7.0^6,10.0^24,28]dotriaconta-1(26),3(32),4,6,8,16,18,24,27,30-decaen-2-yl]acetic acid]	
100	Cc1c2ccc3c1nnn3CCCOCc1ccc(c(Cl)c1)C(=O)N1CCc3ccc(cc3C1)C2CC(=O)O (racemic) [Example 24, [18-Chloro-32-methyl-20-oxo-14-oxa-8,9,10,21-tetraazahexacyclo[19.5.3.2^16,19.1^3,7.0^6,10.0^24,28]dotriaconta-1(26),3(32),4,6,8,16,18,24,27,30-decaen-2-yl]acetic acid]	
100	Cc1c2ccc3c1nnn3CCCCOc1cc(F)c(c(F)c1)C(=O)N1CCc3ccc(cc3C1)C2CC(=O)O (racemic) [Example 32, [18,30-Difluoro-32-methyl-20-oxo-15-oxa-8,9,10,21-tetraazahexacyclo[19.5.3.2^16,19.1^3,7.0^6,10.0^24,28]dotriaconta-1(26),3(32),4,6,8,16,18,24,27,30-decaen-2-yl]acetic acid]	
100	CCc1cc2ccc1C(=O)N1CCc3ccc(cc3C1)C(CC(=O)O)c1ccc3c(nnn3CCCOC2)c1C (racemic) [Example 18, [18-Ethyl-32-methyl-20-oxo-14-oxa-8,9,10,21-tetraazahexacyclo[19.5.3.2^16,19.1^3,7.0^6,10.0^24,28]dotriaconta-1(26),3(32),4,6,8,16,18,24,27,30-decaen-2-yl]acetic acid]	
82	Cc1c2ccc3c1nnn3CCCOCc1ccc(cc1)C(=O)N1CCc3ccc(cc3C1)C2CC(=O)OC(C)OC(=O)OC1CCCCC1 (stereo not drawn) [Example 40, 1-{[(Cyclohexyloxy)carbonyl]oxy}ethyl[32-methyl-20-oxo-14-oxa-8,9,10,21-tetraazahexacyclo[19.5.3.2^16,19.1^3,7.0^6,10.0^24,28]dotriaconta-1(26),3(32),4,6,8,16,18,24,27,30-decaen-2-yl]acetate]	
15	CCOC(=O)CC1c2ccc3c(c2)CN(CC3)C(=O)c2ccc(cc2)COCCCn2nnc3c(C)c1ccc32 (stereo not drawn) [Example 36, Ethyl [32-methyl-20-oxo-14-oxa-8,9,10,21-tetraazahexacyclo[19.5.3.2^16,19.1^3,7.0^6,10.0^24,28]dotriaconta-1(26),3(32),4,6,8,16,18,24,27,30-decaen-2-yl]acetate]	
100	Cc1c2ccc3c1nnn3CCCCOc1ccc(c3c1OC(C)(C)C3)C(=O)N1CCc3ccc(cc3C1)C2CC(=O)O (racemic) [Example 33, [6,6,33-Trimethyl-2-oxo-7,10-dioxa-1,15,16,17-tetraazaheptacyclo[22.5.3.2^3.9.1^18,22.0^4,8.0^15,19.0^27,31]pentatriaconta-3,8,16,18(33),19,21,24,26,31,34-decaen-23-yl]acetic acid]	
